In PubChem BioAssay AID256 (DTP/NCI, 2004):
Values joined by “and” are separate entries in the source; they are usually repeats but may differ in a detail not shown here. Identical values can stand only once. Inconclusive results and toxic doses are left out. How the source made its calls: active means survival T/C of 150% or more; inactive means T/C below 125% in these data.

Tested on: CD2F1 mice, L1210 leukemia ip, survival T/C
Assay: NCI In Vivo Anticancer Drug Screen. Data for tumor model L1210 Leukemia (intraperitoneal) in CD2F1 (CDF1) mice
Conditions: endpoint: mean survival time, higher = longer survival
In short: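 Read-out first: treated-group measurement over vehicle-control measurement, expressed as a ratio. Animals bore a transplanted tumor line and were dosed with compound or vehicle.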

[1] = dose: 100.0 mg/kg/injection, schedule: Q01DX009 (ip), vehicle: saline
[2] = dose: 100.0 mg/kg/injection, schedule: Q04DX003 (ip), vehicle: saline
[3] = dose: 200.0 mg/kg/injection, schedule: Q01DX009 (ip), vehicle: saline
[4] = dose: 100.0 mg/kg/injection, schedule: Q01DX001 (ip), vehicle: saline
[5] = dose: 200.0 mg/kg/injection, schedule: Q01DX001 (ip), vehicle: saline
[6] = dose: 400.0 mg/kg/injection, schedule: Q01DX001 (ip), vehicle: saline
[7] = dose: 25.0 mg/kg/injection, schedule: Q01DX009 (ip), vehicle: Klucel (hydroxypropylcellulose) (HPC)
[8] = dose: 50.0 mg/kg/injection, schedule: Q01DX009 (ip), vehicle: Klucel (hydroxypropylcellulose) (HPC)
[9] = dose: 100.0 mg/kg/injection, schedule: Q01DX009 (ip), vehicle: Klucel (hydroxypropylcellulose) (HPC)
[10] = dose: 100.0 mg/kg/injection, schedule: Q01DX009 (ip), vehicle: saline with Tween-80
[11] = dose: 200.0 mg/kg/injection, schedule: Q01DX009 (ip), vehicle: saline with Tween-80
[12] = dose: 12.5 mg/kg/injection, schedule: Q01DX005 (ip), vehicle: water
[13] = dose: 25.0 mg/kg/injection, schedule: Q01DX005 (ip), vehicle: water
[14] = dose: 50.0 mg/kg/injection, schedule: Q01DX005 (ip), vehicle: water
[15] = dose: 100.0 mg/kg/injection, schedule: Q01DX005 (ip), vehicle: water
[16] = dose: 400.0 mg/kg/injection, schedule: Q01DX009 (ip), vehicle: saline with Tween-80

Measured: T/C

Nc1ccn(C2OC(CO)C(O)C2O)c(=O)n1 (configuration not stated)
inactive: dose: 8.0 mg/kg/injection, schedule: Q X X004 (other), vehicle: saline 86 % of control | dose: 16.0 mg/kg/injection, schedule: Q01DX008 (ip), vehicle: saline 95 % of control | dose: 16.0 mg/kg/injection, schedule: Q03HX024 (oral), vehicle: saline 100 % of control | dose: 30.0 mg/kg/injection, schedule: Q03HX024 (ip), vehicle: saline 93 % of control | dose: 32.0 mg/kg/injection, schedule: Q01DX008 (ip), vehicle: saline 93 % of control | dose: 32.0 mg/kg/injection, schedule: Q01DX008 (oral), vehicle: saline 100 % of control | dose: 64.0 mg/kg/injection, schedule: Q01DX008 (ip), vehicle: saline 98 % of control | dose: 64.0 mg/kg/injection, schedule: Q01DX008 (oral), vehicle: saline 98 % of control | [1] 100 % of control | [2] 96 % of control | dose: 128.0 mg/kg/injection, schedule: Q01DX001 (ip), vehicle: saline 120 % of control | dose: 128.0 mg/kg/injection, schedule: Q01DX008 (ip), vehicle: saline 95 % of control | dose: 128.0 mg/kg/injection, schedule: Q03HX024 (oral), vehicle: saline 110 % of control and 95 % of control | dose: 128.0 mg/kg/injection, schedule: Q04DX003 (ip), vehicle: saline 98 % of control | dose: 128.0 mg/kg/injection, schedule: Q04DX003 (oral), vehicle: saline 120 % of control and 100 % of control | [3] 93 % of control | dose: 256.0 mg/kg/injection, schedule: Q01DX001 (ip), vehicle: saline 91 % of control | dose: 256.0 mg/kg/injection, schedule: Q01DX001 (oral), vehicle: saline 98 % of control | dose: 256.0 mg/kg/injection, schedule: Q01DX009 (ip), vehicle: saline 91 % of control | dose: 256.0 mg/kg/injection, schedule: Q04DX003 (oral), vehicle: saline 98 % of control | dose: 512.0 mg/kg/injection, schedule: Q01DX001 (ip), vehicle: saline 120 % of control and 97 % of control | dose: 512.0 mg/kg/injection, schedule: Q01DX001 (oral), vehicle: saline 100 % of control | dose: 512.0 mg/kg/injection, schedule: Q04DX003 (ip), vehicle: saline 96 % of control | dose: 600.0 mg/kg/injection, schedule: Q04DX002 (ip), vehicle: saline 94 % of control | dose: 1024.0 mg/kg/injection, schedule: Q01DX001 (ip), vehicle: saline 90 % of control | dose: 1024.0 mg/kg/injection, schedule: Q01DX009 (ip), vehicle: saline 95 % of control | dose: 1024.0 mg/kg/injection, schedule: Q01DX009 (oral), vehicle: saline 98 % of control | dose: 1024.0 mg/kg/injection, schedule: Q04DX003 (oral), vehicle: saline 100 % of control | dose: 1200.0 mg/kg/injection, schedule: Q04DX002 (ip), vehicle: saline 91 % of control | dose: 2400.0 mg/kg/injection, schedule: Q04DX003 (ip), vehicle: saline 96 % of control

CC(C)(C)N1OC1c1ccccc1 (configuration not stated)
inactive: [4] 103 % of control | [5] 105 % of control | [6] 97 % of control

Cc1cc[n+](CCc2ccccc2)cc1
inactive: dose: 25.0 mg/kg/injection, schedule: Q01DX009 (ip), vehicle: saline with Tween-80 112 % of control | dose: 25.0 mg/kg/injection, schedule: Q04DX003 (ip), vehicle: saline 95 % of control | dose: 50.0 mg/kg/injection, schedule: Q01DX009 (ip), vehicle: saline with Tween-80 98 % of control | dose: 50.0 mg/kg/injection, schedule: Q04DX003 (ip), vehicle: saline 96 % of control | [2] 94 % of control

CC(C)CC(CC(C)C)=NNc1ccc([N+](=O)[O-])cc1[N+](=O)[O-]
inactive: [4] 100 % of control | [5] 103 % of control | [6] 100 % of control

CCCCN(CCCC)C(Cl)=Nc1ccccc1
inactive: dose: 6.25 mg/kg/injection, schedule: Q01DX009 (ip), vehicle: Klucel (hydroxypropylcellulose) (HPC) 95 % of control and 105 % of control | dose: 12.5 mg/kg/injection, schedule: Q01DX009 (ip), vehicle: Klucel (hydroxypropylcellulose) (HPC) 92 % of control and 104 % of control | [7] 94 % of control and 95 % of control | [8] 94 % of control and 95 % of control | [9] 93 % of control | dose: 200.0 mg/kg/injection, schedule: Q01DX009 (ip), vehicle: Klucel (hydroxypropylcellulose) (HPC) 90 % of control

O=C(OCc1ccccc1)c1cc([N+](=O)[O-])c(Cl)c([N+](=O)[O-])c1
inactive: dose: 100.0 mg/kg/injection, schedule: Q01DX001 (ip), vehicle: saline with Tween-80 101 % of control | [10] 97 % of control | dose: 200.0 mg/kg/injection, schedule: Q01DX001 (ip), vehicle: saline with Tween-80 97 % of control | [11] 98 % of control | dose: 400.0 mg/kg/injection, schedule: Q01DX001 (ip), vehicle: saline with Tween-80 98 % of control

NC(=O)c1ncn(C2OC(COP(=O)(O)O)C(O)C2O)n1 (configuration not stated)
inactive: [12] 98 % of control | [13] 101 % of control | [14] 102 % of control | [15] 98 % of control | dose: 200.0 mg/kg/injection, schedule: Q01DX005 (ip), vehicle: water 102 % of control

CCOC(=O)C(=CN1CCCCCC1)C(=O)OCC
inactive: [10] 94 % of control | [11] 89 % of control | [16] 94 % of control

NC(CCC(=O)OCc1ccccc1)C(=O)OCc1ccccc1 (configuration not stated)
inactive: dose: 50.0 mg/kg/injection, schedule: Q01DX009 (ip), vehicle: saline 106 % of control | [1] 93 % of control | [2] 97 % of control | [3] 87 % of control | dose: 200.0 mg/kg/injection, schedule: Q04DX003 (ip), vehicle: saline 108 % of control

O=S(=O)(/C=C/S(=O)(=O)c1ccccc1)c1ccccc1
inactive: dose: 62.5 mg/kg/injection, schedule: Q01DX009 (ip), vehicle: Klucel (hydroxypropylcellulose) (HPC) 97 % of control | dose: 125.0 mg/kg/injection, schedule: Q01DX009 (ip), vehicle: Klucel (hydroxypropylcellulose) (HPC) 98 % of control

Cc1cc(C)c(N2C(=O)CC(Sc3ccccc3N)C2=O)c(C)c1 (configuration not stated)
inactive: [10] 92 % of control | [11] 96 % of control | [16] 94 % of control

[Br][Pt+2][Br].[NH-]CC(=O)O.[NH-]CC(=O)O
inactive: [7] 101 % of control | [8] 90 % of control | dose: 50.0 mg/kg/injection, schedule: Q04DX003 (ip), vehicle: Klucel (hydroxypropylcellulose) (HPC) 96 % of control | [9] 86 % of control | dose: 100.0 mg/kg/injection, schedule: Q04DX003 (ip), vehicle: Klucel (hydroxypropylcellulose) (HPC) 102 % of control | dose: 200.0 mg/kg/injection, schedule: Q04DX003 (ip), vehicle: Klucel (hydroxypropylcellulose) (HPC) 95 % of control

N#CCc1[nH]nc2ncnc(N)c12
inactive: [12] 100 % of control | [13] 100 % of control | [14] 105 % of control | [15] 105 % of control

COC1=CC=C2[C@@H]3Cc4ccc(OC)c5c4[C@]2(CCN3CCCl)C1O5 (some centres not stated)
inactive: dose: 25.0 mg/kg/injection, schedule: Q04DX003 (ip), vehicle: DMSO 107 % of control | dose: 50.0 mg/kg/injection, schedule: Q04DX003 (ip), vehicle: DMSO 104 % of control | dose: 100.0 mg/kg/injection, schedule: Q04DX003 (ip), vehicle: DMSO 102 % of control

CC1=C(C#[N+][O-])C(C)(C)CCC1
inactive: dose: 75.0 mg/kg/injection, schedule: Q01DX001 (ip), vehicle: other 102 % of control | dose: 150.0 mg/kg/injection, schedule: Q01DX001 (ip), vehicle: other 97 % of control | dose: 300.0 mg/kg/injection, schedule: Q01DX001 (ip), vehicle: other 105 % of control

CCCCCCCCCCCC(O)CCCCC (configuration not stated)
inactive: dose: 100.0 mg/kg/injection, schedule: Q01DX009 (ip), vehicle: other 95 % of control | dose: 100.0 mg/kg/injection, schedule: Q04DX003 (ip), vehicle: other 91 % of control | dose: 200.0 mg/kg/injection, schedule: Q01DX009 (ip), vehicle: other 91 % of control | dose: 200.0 mg/kg/injection, schedule: Q04DX003 (ip), vehicle: other 103 % of control | dose: 400.0 mg/kg/injection, schedule: Q01DX009 (ip), vehicle: other 98 % of control | dose: 400.0 mg/kg/injection, schedule: Q04DX003 (ip), vehicle: other 96 % of control
